In patent US6750244B2, “Compounds active at a novel site on receptor-operated calcium channels useful for treatment of neurological disorders and diseases” (NPS Pharmaceuticals, Inc., priority 1993, dated 2004):
“Also recorded” adds a separate entry of the source. Like-named read-outs stand apart in the source and are kept apart here.

What was measured:
locomotor activity = settings: 32 mg/kg s.c.
Description: The first assay simply monitors locomotor activity during the first hour following peripheral (s.c. or i.p.) administration of test substance. […] Activity was quantified by counting the number of breaks in a phototube grid in a 60 min period.

L-type calcium channel = system: T1, L-type calcium channel; assay: Inhibition of KCl depolarization-induced increases in intracellular calcium in cultured rat cerebellar granule cells; type: cell-based
T1 construct: L-type calcium channel: estimated IC50, KCl depolarization-induced increases in intracellular calcium; other: cultured
Excerpt: (§1) The ability of arylalkylamines to inhibit dihydropyridine-sensitive Ca^2+ channels was examined in cerebellar granule cells and a rat aortic smooth muscle cell line, A7r5 cells.

sound-induced seizures = assay: Sound-induced seizures in Frings mice (reflex epilepsy); type: in vivo
thermal nociception [1] = type: in vivo, rats; settings: 0.3-3 nmol i.th.
Description: In this standard assay, the thermal nociceptive stimulus was 52° C. warm water with the latency to tail flick or withdrawal taken as the endpoint.

[2] = system: acetic acid-induced writhing; type: in vivo, mice; settings: i.p.
[3] = molecular target: voltage-sensitive Ca2+ channels (Rattus norvegicus, UniProt P22002); assay: cell-based
Sequence of voltage-sensitive Ca2+ channels (P22002 whole entry): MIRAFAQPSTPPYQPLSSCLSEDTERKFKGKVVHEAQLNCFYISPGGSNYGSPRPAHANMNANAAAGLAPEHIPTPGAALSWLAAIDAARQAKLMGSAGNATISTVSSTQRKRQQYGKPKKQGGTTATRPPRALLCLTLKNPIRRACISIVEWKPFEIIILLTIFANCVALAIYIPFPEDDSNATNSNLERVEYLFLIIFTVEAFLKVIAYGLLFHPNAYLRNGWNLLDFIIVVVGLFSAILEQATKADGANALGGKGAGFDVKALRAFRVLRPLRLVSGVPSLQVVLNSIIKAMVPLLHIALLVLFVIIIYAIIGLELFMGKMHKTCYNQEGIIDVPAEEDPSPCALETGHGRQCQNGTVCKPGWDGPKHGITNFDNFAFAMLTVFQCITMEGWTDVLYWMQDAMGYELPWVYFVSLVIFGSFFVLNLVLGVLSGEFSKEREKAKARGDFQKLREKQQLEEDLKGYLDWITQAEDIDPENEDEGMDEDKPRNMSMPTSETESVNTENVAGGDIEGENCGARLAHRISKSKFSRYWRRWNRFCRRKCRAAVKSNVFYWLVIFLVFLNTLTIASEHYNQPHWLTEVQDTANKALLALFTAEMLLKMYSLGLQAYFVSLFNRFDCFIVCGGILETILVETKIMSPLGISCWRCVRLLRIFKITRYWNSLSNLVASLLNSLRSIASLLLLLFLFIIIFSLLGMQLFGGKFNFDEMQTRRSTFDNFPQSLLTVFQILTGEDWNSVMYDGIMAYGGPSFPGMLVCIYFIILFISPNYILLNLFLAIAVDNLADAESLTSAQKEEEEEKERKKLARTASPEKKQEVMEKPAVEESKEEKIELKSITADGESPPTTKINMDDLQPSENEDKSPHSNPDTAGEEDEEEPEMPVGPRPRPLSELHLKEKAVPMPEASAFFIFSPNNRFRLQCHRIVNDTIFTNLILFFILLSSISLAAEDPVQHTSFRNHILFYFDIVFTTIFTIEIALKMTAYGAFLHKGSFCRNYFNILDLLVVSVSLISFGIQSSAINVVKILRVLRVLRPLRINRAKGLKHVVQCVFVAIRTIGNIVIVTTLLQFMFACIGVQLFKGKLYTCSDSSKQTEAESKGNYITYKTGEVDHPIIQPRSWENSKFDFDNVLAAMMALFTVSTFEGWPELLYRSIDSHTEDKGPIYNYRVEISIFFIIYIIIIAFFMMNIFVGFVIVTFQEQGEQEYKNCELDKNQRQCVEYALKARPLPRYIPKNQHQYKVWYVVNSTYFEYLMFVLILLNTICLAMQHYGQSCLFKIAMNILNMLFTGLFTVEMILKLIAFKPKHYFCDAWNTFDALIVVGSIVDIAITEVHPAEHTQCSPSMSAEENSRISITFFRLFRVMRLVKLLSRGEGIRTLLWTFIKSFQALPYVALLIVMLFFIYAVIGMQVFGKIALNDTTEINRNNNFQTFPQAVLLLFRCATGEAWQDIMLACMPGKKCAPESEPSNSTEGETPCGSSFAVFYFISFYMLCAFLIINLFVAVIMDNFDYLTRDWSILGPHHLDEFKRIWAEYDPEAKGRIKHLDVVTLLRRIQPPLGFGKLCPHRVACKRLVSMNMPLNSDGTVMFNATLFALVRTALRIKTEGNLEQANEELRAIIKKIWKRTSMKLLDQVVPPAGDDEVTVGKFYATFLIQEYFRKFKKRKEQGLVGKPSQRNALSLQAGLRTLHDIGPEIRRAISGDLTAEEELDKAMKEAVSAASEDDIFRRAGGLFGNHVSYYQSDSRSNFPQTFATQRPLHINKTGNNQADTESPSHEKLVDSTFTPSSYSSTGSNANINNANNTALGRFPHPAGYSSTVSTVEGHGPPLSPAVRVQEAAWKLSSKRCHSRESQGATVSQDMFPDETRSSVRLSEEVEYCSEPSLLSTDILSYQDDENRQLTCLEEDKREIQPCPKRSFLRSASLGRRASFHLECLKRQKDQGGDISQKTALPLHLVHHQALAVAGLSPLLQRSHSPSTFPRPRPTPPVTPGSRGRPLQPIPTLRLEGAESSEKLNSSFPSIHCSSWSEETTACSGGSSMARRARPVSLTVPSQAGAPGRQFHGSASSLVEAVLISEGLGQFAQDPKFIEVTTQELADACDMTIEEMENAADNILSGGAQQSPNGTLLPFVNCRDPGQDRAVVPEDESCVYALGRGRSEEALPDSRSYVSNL
Excerpt: as §1

[4] = system: PCP-like discriminative stimulus effects; type: in vivo, rats
Excerpt: In this assay, rats who have been trained to lever press for food reinforcement must select which of two levers in their cages is correct. The only stimulus they hive for selecting the correct lever is their ability to detect whether they received a PCP or vehicle injection After about two months of training, rats become very good at discriminating PCP from vehicle injections and can then be tested with other drugs to determine if they are discriminated as PCP. When tested in this procedure, other drugs which are known to produce a PCP-like intoxication substitute for PCP. These drugs include various PCP analogs such as ketamine and the noncompetitive NMDA receptor antagonist, MK-801.

NMDA receptors = settings: patch clamp
[5] = system: forebrain ischemia (neuronal cell death); type: in vivo, gerbil; settings: 10 mg/kg; 7 days post-ischemia
Description: Blood flow to the brain was interrupted for 7 minutes by clamping the carotid arteries. The test compounds were administered as a 'single dose given intraperitoneally (i.p.) 30 minutes after reinstating blood flow. During the course of these experiments, the core body temperature of the animals was maintained at 37° C. to prevent any hypothermic reaction. […]

NMDA receptor [6] = settings: rat hippocampal slices
Description: (§2) Glutamate-mediated transmission at synapses of Schaffer collateral fibers and CA1 pyramidal cells was measured in slices of rat brain containing the hippocampus. This assay measures electrophysiologically the postsynaptic depolarization caused by the presynaptic release of glutamate, and can readily distinguish synaptic transmission mediated by NMDA or AMPA receptors.

AMPA receptor = settings: read-out: IC50 for the AMPA receptor-mediated response; rat hippocampal slices
Description: as §2

[7] = system: maximal electroshock-induced seizures; assay: Maximal electroshock-induced seizures in mice; type: in vivo; settings: for ED50: Mus musculus, mice
mouse cortical neurons = assay: cells; settings: Cortical neurone, read-out: IC50, prevention of NMDA-induced cell death
Description: The effective concentrations of NMDA receptor antagonists vary depending on the particular experimental conditions and the type of cell studied (cortical, hippocampal, striatal).

thermal nociception [8] = type: in vivo, mice
thermal nociception [9] = type: in vivo, rats; settings: 0.3-3 nmol i.th.; remark: listed apart in the source
Description: In these experiments, a 52° C. hot plate was used as the nociceptive stimulus.

focal cerebral ischemia = assay: Middle cerebral artery occlusion, permanent, surgical ligation; type: in vivo, rat; settings: single dose 30 mg/kg i.p. 30 minutes after occlusion; 24 hours
Description: In the first study using this stroke model, one cerebral artery was permanently occluded by surgical ligation. The test compounds were administered 30 minutes after the occlusion by a single intraperitoneal (i.p.) injection. During the course of these experiments, the core body temperature of the animals was maintained at 37° C. to prevent any hypothermic reaction. Brains were assessed histologically for neuronal cell loss 24 hours later. Infarct volumes were calculated using the area of histological pallor from 10 slides and integrating the distance between each successive section.

[10] = system: formalin-induced flinching; type: in vivo, Sprague-Dawley rats; settings: 0.3-10 nmol i.th.
NMDA receptor [11] = assay: Inhibition of NMDA/glycine-induced increases in intracellular calcium in cultured rat cerebellar granule cells (RCGC); type: cell-based
[12] = system: mean arterial blood pressure; settings: rats
[13] = molecular target: NMDA receptor-ionophore complex (site labeled by [3H]MK-801); assay: Inhibition of [3H]MK-801 binding in rat cortical/hippocampal washed membrane preparations; settings: read-out: IC50 (μM) vs. [3H]MK-801; rat cortical/hippocampal washed membranes
[14] = Acute motor impairment (rotorod) in mice; settings: mouse, in vivo, ip
Description: (§3) In this assay, Frings and CF1 mice were injected with test compound and placed on a knurled rod which rotated at a speed of 6 rpm. The ability of the mice to maintain equilibrium for long periods of time was determined; those mice that were unable to maintain equilibrium on the rotorod for 1 min in each of 3 trials were considered impaired.

motor performance [15] = assay: Acute motor impairment (rotorod) in mice
Description: as §3

neuronal vacuolization = settings: i.p.
motor performance [16] = settings: 32 mg/kg s.c.
Description: In this assay, animals are placed on a wire-holed grid suspended from a rotating metal bar which can be inverted. The animals are then scored for their ability to climb to the top or hang on to the grid. […] This assay provides an index of “behavioral disruption” that may result from ataxia, loss of the righting reflex, sedation, or muscle relaxation.

induction of LTP = system: induction of LTP; parameters: species or system rat; settings: at 100 μM
PBQ-elicited writhing = type: in vivo; settings: 16 mg/kg i.p.
Description: In the first series of experiments, the animals were administered an unpleasant stimulus (2-phenyl-1,4-benzoquinone, PBQ) which elicits a writhing response (abdominal stretching). Typically, the number of writhes occurring in a 5 min observation period is recorded. […] Nonsteroidal antiinflammatory agents are likewise effective in this model.

[17] = system: delayed rectifier potassium channel; assay: Inhibition of delayed rectifier potassium channel in cultured N1E-115 neuroblastoma cells; type: cell-based; settings: read-out: Delayed rectifier potassium channel: estimated IC50
[18] = system: PCP-like stereotypic behavior; assay: PCP-like stereotypic behavior (hyperexcitability and head weaving) in rats; settings: 30 mg/kg i.p.
Description: We investigated whether the arylalkylamines would elicit such behaviors.

[19] = system: central muscarinic cholinergic receptor; type: binding, rat

Compound: N=C(N)NCCCC(N)C(=O)NCCCNCCCNCCCCCNC(=O)C(CC(N)=O)NC(=O)Cc1ccc(O)cc1O (centres unmarked) [Compound 1]
- effect on locomotor activity (locomotor activity): did not elicit hyperactivity
- IC50 (L-type calcium channel; read-out: L-type calcium channel: estimated IC50, KCl depolarization-induced increases in intracellular calcium; cultured rat cerebellar granule cells): 257 µM
- IC50, prevention of sound-induced seizures (sound-induced seizures; intracerebroventricular (i.c.v.) injection): 0.63 µg
- IC50, prevention of sound-induced seizures (sound-induced seizures; intraperitoneal injection): 14.3 mg/kg
- analgesic effect, tail flick (52° C. warm water) (thermal nociception [1]): dose- and time-dependent analgesic effect
- IC50, inhibition of acetic acid-induced writhing [2]: 10 mg/kg
- IC50 [3]: 808 µM
- substitution for PCP ([4]; 1-30 mg/kg i.p.): did not substitute for PCP
- effect on responses to NMDA and kainate (NMDA receptors): blocked responses to NMDA at nanomolar concentrations without affecting the responses to kainate
- reduction in neuronal death / protection in region CA1 of the hippocampus [5]: 23%
- Suppression of NMDA Receptor-Mediated Synaptic Transmission (concentration which suppresses) (NMDA receptor [6]): 10 to 30 µM
- IC50 (NMDA receptor [6]; read-out: IC50 for the NMDA receptor-mediated response): 20 µM
- IC50 (AMPA receptor): 647 µM
- effect against seizures elicited by maximal electroshock ([7]; CF1 mice, 4 μg i.c.v.): effective
- IC50 (mouse cortical neurons): 70 µM
- increase in latency to foot licking (thermal nociception [8]; 4 mg/kg s.c.): 136%
- increase in latency to jumping (thermal nociception [8]; 32 mg/kg s.c.): 360%
- antinociceptive effect, hot plate (thermal nociception [9]): dose- and time-dependent antinociceptive effects
- protection against neuronal cell loss (focal cerebral ischemia): approximately 15%
- late-phase flinching, administered after the formalin ([10]; 10 min after formalin): significance was achieved only at the 10 nmol dose
- flinching behaviors, pretreatment to formalin ([10]; 10 min prior to formalin): effectively inhibited both early- and late-phase flinching behaviors
- IC50 (NMDA receptor [11]; read-out: IC50 against NMDA receptor-mediated increases in [Ca2+]i in cerebellar granule cells): 0.102 µM
- Drop in Mean Arterial Blood Pressure ([12]; 1.5 μmoles/kg i.v.): 65 mm Hg at
- Drop in Mean Arterial Blood Pressure: duration ([12]; 1.5 μmoles/kg i.v.): i.v., 60 min
- IC50 [13]: 126 µM
- TD50 ([14]; Frings): 16.8 mg/kg
- motor impairment in CF1 mice (motor performance [15]; 4 μg i.c.v.): motor impairment
- dose that had to be exceeded before motor toxicity was evident (motor performance [15]; Frings mice, i.c.v.): exceeded 1.56 μg
- dose without neuronal vacuolization (neuronal vacuolization): 100 mg/kg
- motor performance in the inverted grid assay (motor performance [16]): did not lessen the ability of DBA/2 mice to right themselves

Compound: NCCC(c1ccccc1)c1ccccc1 [Compound 19, 3,3-diphenylpropylamine]
- LTP Assay (block of the induction of LTP) (induction of LTP): did block; also recorded: block at 100
- IC50 (L-type calcium channel; cultured rat cerebellar granule cells; read-out: L-type calcium channel: estimated IC50, KCl depolarization-induced increases in intracellular calcium): 10.2 µM
- no generalization to PCP at doses up to the behaviorally active dose of ([4]; i.p., rats): ≤ 30 mg/kg
- analgesic activity in the PBQ-induced writhing assay (PBQ-elicited writhing): significant analgesic activity
- Suppression of NMDA Receptor-Mediated Synaptic Transmission (concentration which suppresses) (NMDA receptor [6]): 100 to 300 µM
- ED50 ([7]; ip): 26.4 mg/kg
- ED50 ([7]; oral (p.o.)): 35 mg/kg
- analgesic activity in the hot-plate assay (thermal nociception [8]; 16 mg/kg i.p.): significant analgesic activity
- IC50 (NMDA receptor [11]; NMDA/glycine-induced increases in intracellular calcium, cultured rat cerebellar granule cells, read-out: IC50 (μM) vs. NMDA): 0.435 µM
- IC50 [17]: 1 to 10 µM
- without effect on blood pressure at doses up to ([12]; s.c.): up to 100 mg/kg
- IC50 [13]: 2.1 µM
- TD50 [14]: 43.8 mg/kg
- motor impairment (motor performance [15]; mice, 30 mg/kg p.o.): motor impairment
- PCP-like stereotypic behavior (hyperexcitability and head weaving) [18]: no PCP-like stereotypic behavior
- Central muscarinic cholinergic receptor: percent block of [3H]QNB binding ([19]; at 0.1 μM): 4% at
- Central muscarinic cholinergic receptor: percent block of [3H]QNB binding ([19]; at 10 μM): 0.174%
